Patent US7803795B2, “Phthalazine derivatives as parp inhibitors” (Janssen Pharmaceutica N.V., priority 2004, dated 2010)
Structures can show the parent of a compound that is named as a salt.

Tests used:
TANK-2 enzyme = biological target: T1, TANK-2 enzyme (Homo sapiens, UniProt Q9H2K2); assay: in vitro Scintillation Proximity Assay (SPA) for TANK-2 inhibitory activity; format: biochemical
T1 construct: His tag (inferred from capture on a Ni-coated plate); made in house
T1 sequence (Q9H2K2 1-1166): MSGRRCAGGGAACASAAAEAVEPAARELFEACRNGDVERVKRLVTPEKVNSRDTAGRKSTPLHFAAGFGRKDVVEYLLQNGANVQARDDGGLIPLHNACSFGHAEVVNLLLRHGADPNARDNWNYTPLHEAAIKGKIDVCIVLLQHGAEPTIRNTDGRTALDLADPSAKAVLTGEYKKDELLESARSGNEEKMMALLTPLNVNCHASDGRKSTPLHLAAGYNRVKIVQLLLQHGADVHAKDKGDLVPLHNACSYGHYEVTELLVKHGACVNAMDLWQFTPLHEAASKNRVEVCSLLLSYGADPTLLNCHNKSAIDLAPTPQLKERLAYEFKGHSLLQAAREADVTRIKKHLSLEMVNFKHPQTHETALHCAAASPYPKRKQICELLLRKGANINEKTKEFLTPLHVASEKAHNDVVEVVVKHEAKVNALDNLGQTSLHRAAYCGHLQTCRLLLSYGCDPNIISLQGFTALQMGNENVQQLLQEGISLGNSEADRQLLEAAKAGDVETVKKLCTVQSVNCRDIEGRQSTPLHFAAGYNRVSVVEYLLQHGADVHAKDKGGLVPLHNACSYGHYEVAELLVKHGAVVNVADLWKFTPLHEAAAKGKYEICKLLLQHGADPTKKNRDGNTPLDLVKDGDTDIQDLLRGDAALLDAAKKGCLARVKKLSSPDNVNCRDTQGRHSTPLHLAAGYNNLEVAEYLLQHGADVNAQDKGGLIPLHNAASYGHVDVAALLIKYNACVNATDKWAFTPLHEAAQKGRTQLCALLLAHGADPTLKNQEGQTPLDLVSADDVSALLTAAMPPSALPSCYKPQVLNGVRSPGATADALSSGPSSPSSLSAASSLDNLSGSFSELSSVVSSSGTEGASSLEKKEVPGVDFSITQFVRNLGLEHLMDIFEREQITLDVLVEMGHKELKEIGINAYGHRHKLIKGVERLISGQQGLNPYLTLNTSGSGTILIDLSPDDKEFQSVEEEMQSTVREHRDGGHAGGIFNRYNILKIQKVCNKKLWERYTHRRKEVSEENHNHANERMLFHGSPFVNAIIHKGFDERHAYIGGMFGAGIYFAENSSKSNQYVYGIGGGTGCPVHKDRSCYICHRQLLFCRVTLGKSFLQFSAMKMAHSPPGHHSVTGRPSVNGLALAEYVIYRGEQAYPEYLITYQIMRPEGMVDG
Description: In Vitro Scintillation Proximity Assay (SPA) for Tank-2 Inhibitory Activity
Compounds of the present invention were tested in an in vitro assay based on SPA technology with Ni Flash plates (96 or 384 well).
In principle, the assay relies upon SPA technology for the detection of auto-poly(ADP-ribosylation of TANK-2 protein using [^3H]-nicotinamide adenine dinucleotide ([^3H]-NAD^+) as ADP-ribosyl donor.
A stock solution of [^3H]-NAD^+/NAD was made by adding 64.6 μl of [^3H]-NAD^+ (0.1 mCi/ml, supplier: Perkin Elmer) and 46.7 μl NAD-stock (10.7 mM, stored at −20° C., supplier Roche) to 1888.7 μl assay buffer (60 mM Tris/HCl, pH 7.4; 0.9 mM DTT; 6 mM MgCl2). The TANK-2 enzyme was produced as described in EP1238063.60 μl of assay buffer, together with 1 μl of compound in DMSO, 20 μl of [^3H]-NAD^+/NAD and 20 μl of TANK-2 enzyme (final concentration 6 μg/ml) was added per well into a 96-well Ni-coated flash plate (Perkin Elmer). After incubation of the mixture for 120 min. at room temperature, the reaction was terminated by adding 60 μl of stopsolution (42.6 mg NAD in 6 ml H2O). The plates were covered with a plate sealer and placed in a TopCountNXT™ (Packard) for scintillation counting. Values were expressed as counts per minute (cpm). For each experiment, controls (containing TANK-2 enzyme and DMSO without compound), a blank incubation (containing DMSO but no TANK-2 enzyme or compound) and samples (containing TANK-2 enzyme and compound dissolved in DMSO) were run in parallel. All compounds tested were dissolved and eventually further diluted in DMSO. […] In each test, the blank value was subtracted from both the control and the sample values. The control sample represented maximal TANK-2 enzyme activity. For each sample, the amount of cpm was expressed as a percentage of the mean cpm value of the controls. When appropriate, IC50-values (concentration of the drug, needed to reduce the TANK-2 enzyme activity to 50% of the control) were computed using linear interpolation between the experimental points just above and below the 50% level. Herein the effects of test compounds are expressed as pIC50 (the negative log value of the IC50-value). As reference compounds, 3-aminobenzamide and 4-amino-1,8-naphthalimide were included to validate the SPA assay. Herein the assay was described using 96-well plates. In the assay using 384-well plates the same final concentrations were used and volumes were adapted.

PARP-1 enzyme = biological target: T2, PARP-1 enzyme (Homo sapiens, UniProt P09874); assay: in vitro filtration assay for PARP-1 inhibitory activity; format: biochemical; conditions: [32P]-NAD, histones, nicked DNA; dose-response 10^-5 M to 10^-8 M; read-out: in vitro filter assay PARP-1 pIC50 (converted)
T2 construct: made in house
Description: In Vitro Filtration Assay for PARP-1 Inhibitory Activity
Compounds of the present invention were tested in an in vitro filtration assay assessing PARP-1 activity (triggered in the presence of nicked DNA) by means of its histone poly (ADP-ribosylation activity using [^32P]-NAD as ADP-ribosyl donor. The radioactive ribosylated histones were precipitated by trichloroacetic acid (TCA) in 96-well filterplates and the incorporated [^32P] measured using a scintillation counter
A mixture of histones (stock solution: 5 mg/ml in H2O), NAD^+ (stock solution: 100 mM in H2O), and [^32P]-NAD^+ in incubation buffer (50 mM Tris/HCl, pH 8; 0.2 mM DTT; 4 mM MgCl2) was made. A mixture of the PARP-1 enzyme (5-10 μg/ml) and nicked DNA was also made. The nicked DNA was prepared as described in the in vitro SPA for PARP-1 inhibitory activity. Seventy-five μl of the PARP-1 enzyme/DNA mixture together with 1 μl of compound in DMSO and 25 μl of histones-NAD^+/[^32P]-NAD^+ mixture was added per well of a 96-well filterplate (0.45 μm, supplier Millipore). The final concentrations in the incubation mixture were 2 μg/ml for the histones, 0.1 mM for the NAD^+, […] (0.5 μC) for the [^32P]-NAD^+ and 2 μg/ml for the nicked DNA. Plates were incubated for 15 min. at room temperature and the reaction was terminated by the addition of 10 μl ice cold 100% TCA followed by the addition of 10 μl ice-cold BSA solution (1% in H2O). The protein fraction was allowed to precipitate for 10 min. at 4° C. and plates were vacuum filtered. The plates were subsequently washed with, for each well, 1 ml of 10% ice cold TCA, 1 ml of 5% ice cold TCA and 1 ml of 5% TCA at room temperature. Finally 100 μl of scintillation solution (Microscint 40, Packard) was added to each well and the plates were transferred to a TopCountNXT™ (supplier: Packard) for scintillation counting and values were expressed as counts per minute (cpm). For each experiment, controls (containing PARP-1 enzyme and DMSO without compound), a blank incubation (containing DMSO but no PARP-1 enzyme or compound) and samples (containing PARP-1 enzyme and compound dissolved in DMSO) were run in parallel. All compounds tested were dissolved and eventually further diluted in DMSO. In first instance, compounds were tested at a concentration of 10^−5M. […] In each test, the blank value was subtracted from both the control and the sample values. The control sample represented maximal PARP-1 enzyme activity. For each sample, the amount of cpm was expressed as a percentage of the mean cpm value of the controls. When appropriate, IC50-values (concentration of the drug, needed to reduce the PARP-1 enzyme activity to 50% of the control) were computed using linear interpolation between the experimental points just above and below the 50% level. Herein the effects of test compounds are expressed as pIC50 (the negative log value of the IC50-value). As a reference compound, 4-amino-1,8-naphthalimide was included to validate the filtration assay.

T2 sequence (P09874 whole entry): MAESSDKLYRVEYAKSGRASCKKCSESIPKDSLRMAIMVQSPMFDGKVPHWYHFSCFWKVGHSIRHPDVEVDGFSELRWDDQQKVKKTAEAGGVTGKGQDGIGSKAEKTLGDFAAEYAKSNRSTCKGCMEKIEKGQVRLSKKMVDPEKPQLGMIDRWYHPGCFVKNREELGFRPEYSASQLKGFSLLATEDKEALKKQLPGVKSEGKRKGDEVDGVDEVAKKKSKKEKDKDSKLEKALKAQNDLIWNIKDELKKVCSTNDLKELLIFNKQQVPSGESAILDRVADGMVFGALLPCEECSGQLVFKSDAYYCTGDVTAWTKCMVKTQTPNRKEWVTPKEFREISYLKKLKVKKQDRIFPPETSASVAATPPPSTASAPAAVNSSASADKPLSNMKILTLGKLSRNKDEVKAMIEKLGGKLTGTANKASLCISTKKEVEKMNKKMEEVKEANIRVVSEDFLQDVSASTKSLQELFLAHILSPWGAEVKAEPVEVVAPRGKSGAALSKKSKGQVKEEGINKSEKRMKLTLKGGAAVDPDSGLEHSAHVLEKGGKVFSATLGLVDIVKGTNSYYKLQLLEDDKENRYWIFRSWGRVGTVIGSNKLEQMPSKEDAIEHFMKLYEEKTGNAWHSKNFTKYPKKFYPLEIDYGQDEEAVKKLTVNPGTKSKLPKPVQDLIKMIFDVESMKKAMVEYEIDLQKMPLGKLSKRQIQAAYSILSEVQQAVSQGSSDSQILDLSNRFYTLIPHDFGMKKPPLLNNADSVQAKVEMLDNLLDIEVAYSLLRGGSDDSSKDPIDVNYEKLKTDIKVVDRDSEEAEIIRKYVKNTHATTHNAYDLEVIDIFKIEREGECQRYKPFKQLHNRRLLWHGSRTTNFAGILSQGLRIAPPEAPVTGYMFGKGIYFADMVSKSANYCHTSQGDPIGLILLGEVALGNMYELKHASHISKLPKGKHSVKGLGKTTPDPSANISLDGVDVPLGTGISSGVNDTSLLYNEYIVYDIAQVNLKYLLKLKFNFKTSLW

| IC50 (TANK-2 enzyme) [nM] | IC50 (PARP-1 enzyme) [nM] | melting point [°C] | Structure (SMILES) |
| --- | --- | --- | --- |
| > 10000 | 56.8 | – | CCOC(=O)N1CCC(CCNc2n[nH]c(=O)c3ccccc23)CC1 [Compound 43] |
| – | – | > 300 | Nc1ccc2c(=O)[nH]nc(NC3CCNCC3)c2c1 (as salt: HCl) (hydrate or solvate) [Compound 14] |
| > 10000 | – | 199 | CCOC(=O)N1CCC(Nc2nnc(Cl)c3ccc([N+](=O)[O-])cc23)CC1 [Compound 20] |
| > 10000 | 61.8 | – | O=c1[nH]nc(NCCC2CCNCC2)c2ccccc12 [Compound 37] |
| 9250 | 109 | – | N#CCN1CCN(c2n[nH]c(=O)c3ccccc23)CC1 [Compound 32] |
| > 10000 | 179 | – | O=c1[nH]nc(NCCNC2CCN(Cc3ccccc3)CC2)c2ccccc12 [Compound 42] |
| 3130 | 83.8 | – | O=c1[nH]nc(NCC2CCNCC2)c2ccccc12 [Compound 36] |
| 6370 | 182 | – | CC(C)(C)OC(=O)N1CCC(CNc2n[nH]c(=O)c3ccccc23)CC1 [Compound 47] |
| – | 91.8 | – | CN(c1cc2ccccc2s1)C1CCN(c2n[nH]c(=O)c3ccccc23)CC1 [Compound 54] |
| – | 38.6 | – | O=c1[nH]nc(C2CCN(c3ccc(Cl)nn3)CC2)c2ccccc12 [Compound 62] |
| 2790 | – | – | Cc1cccc(N2CCN(c3nnc(Cl)c4ccccc34)CC2)c1 [Compound 81] |
| – | – | 171.8 | Clc1nnc(NC2CCN(Cc3ccccc3)C2)c2ccccc12 (stereo not drawn) (as salt: HCl) (hydrate or solvate) [Compound 12] |
| – | – | 253 | N#CC1CCN(c2n[nH]c(=O)c3ccccc23)CC1 [Compound 18] |
| – | 45.4 | – | O=c1[nH]nc(C2CCN(C[C@H](O)[C@@H]3CCc4ccccc4O3)CC2)c2ccccc12 (relative stereo) [Compound 28] |
| > 10000 | – | – | Clc1cccc(N2CCN(c3nnc(Cl)c4ccccc34)CC2)c1 [Compound 80] |
| > 10000 | 17.3 | – | O=c1[nH]nc(C2CCN(CC(O)COc3ccc(F)c(F)c3)CC2)c2ccccc12 (stereo not drawn) [Compound 26] |
| > 10000 | 148 | – | O=c1[nH]nc(NC2CC(Cc3ccccc3)NC(Cc3ccccc3)C2)c2ccccc12 (stereo not drawn) [Compound 38] |
| > 10000 | 213 | – | O=c1[nH]nc(NC2CCNCC2)c2cc(Cl)ccc12 [Compound 39] |
| – | – | 227.6 | O=c1[nH]nc(C2CCN(CCCOc3ccc(F)cc3)CC2)c2ccccc12 (as salt: HCl) [Compound 13] |
| > 10000 | 217 | – | O=c1[nH]nc(NC2CCNCC2)c2cccc([N+](=O)[O-])c12 [Compound 40] |
| 5430 | 109 | – | O=c1[nH]nc(N2CCC(NCc3ccccc3)CC2)c2ccccc12 [Compound 45] |
| > 10000 | – | – | COc1ccccc1N1CCN(c2nnc(Cl)c3ccccc23)CC1 [Compound 84] |
| > 10000 | 177 | – | O=c1[nH]nc(N[C@H]2CCN[C@@H](Cc3ccccc3)C2)c2ccccc12 (single isomer, unassigned) [Compound 35] |
| > 10000 | 119 | – | NC1CCN(c2n[nH]c(=O)c3ccccc23)CC1 [Compound 31] |
| > 10000 | 766 | – | Nc1ccc2c(=O)[nH]nc(NC3CCNCC3)c2c1 [Compound 14] |
| > 10000 | 37.7 | – | O=c1[nH]nc(NC2CCNCC2)c2ccccc12 [Compound 41] |
| – | 29.2 | – | COc1ccc(CCN2CCC(c3n[nH]c(=O)c4ccccc34)CC2)cc1 [Compound 64] |
| > 10000 | 154 | – | NCCN1CCC(Nc2n[nH]c(=O)c3ccccc23)CC1 [Compound 33] |
| > 10000 | – | – | FC(F)(F)c1cccc(N2CCN(c3nnc(Cl)c4ccccc34)CC2)c1 [Compound 79] |

| Structure (SMILES) | IC50 (TANK-2 enzyme) [nM] | IC50 (PARP-1 enzyme) [nM] | melting point [°C] |
| --- | --- | --- | --- |
| O=c1[nH]nc(N[C@@H]2C[C@H]3CC[C@@H](C2)N3CCCC(c2ccc(F)cc2)c2ccc(F)cc2)c2ccccc12 (hydrate or solvate) [Compound 3] | – | – | 164.4 |
| CCOC(=O)N1CC[C@H](Nc2nnc(Cl)c3ccccc23)C[C@@H]1Cc1ccccc1 [Compound 19] | > 10000 | – | 161 |
| O=c1[nH]nc(N[C@@H]2C[C@H]3CC[C@@H](C2)N3)c2ccccc12 (as salt: HBr) [Compound 15] | – | – | > 299 |
| O=c1[nH]nc(C2CCNCC2)c2ccccc12 (hydrate or solvate) [Compound 4] | – | – | 264.9 |
